Several values for one entry are separate records, joined by “and”; a condition that tells them apart may be missing. Equal values may be shown once. Read-outs that look alike come from different tables or passages of the source.

For assay [1], the system named is dopamine neurons in the VTA. As to conditions: rat, in vivo; cited from earlier work.
Assay [2] concerns the target T1, α1β3γ2 GABAA/BzR (Homo sapiens, UniProt P14867+P18507). Further details: expressed in transfected cells; host or cells: LTK cells (given for XLi-093 only). To be noted: cited from earlier work.
For assay [3], the target named is T2, α3β3γ2 GABAA/BzR (Homo sapiens, UniProt P18507+P34903). Also noted: expressed in transfected cells; host or cells: LTK cells (given for XLi-093 only). To be noted: cited from earlier work.
Assay [4] concerns the target T3, α2β3γ2 GABAA/BzR (Homo sapiens, UniProt P18507+P47869). Also noted: expressed in transfected cells; host or cells: LTK cells (given for XLi-093 only). As to conditions: cited from earlier work.
Assay [5] addresses T4, α5β3γ2 GABAA/BzR (Homo sapiens, UniProt P18507+P31644). Further details: expressed in transfected cells; host or cells: LTK cells (given for XLi-093 only). To be noted: read-out: Affinity Ki α5, cited from earlier work.
The target in assay [6] is T5, α6β3γ2 GABAA/BzR (Homo sapiens, UniProt P18507+Q16445). Further details: expressed in transfected cells; host or cells: LTK cells (given for XLi-093 only). As to conditions: cited from earlier work.
Assay [7] has as its target T6, α4β3γ2 GABAA/BzR (Homo sapiens, UniProt P18507+P48169).
T6 construct: expressed in transfected cells; host or cells: LTK cells (given for XLi-093 only)
As to conditions: cited from earlier work.

The target of assay [8] is T4, α5β3γ2 GABAA/BzR. The assay can be described thus: Competition binding to HEK cell membranes, α5β3γ2. Further details: expressed in transfected cells.
Assay [9] has as its target T6, α4β3γ2 GABAA/BzR. The assay can be described thus: biochemical. It counts as binding.
The target in assay [10] is T2, α3β3γ2 GABAA/BzR. The assay can be described thus: Competition binding to HEK cell membranes, α3β3γ2. Also noted: expressed in transfected cells.
Assay [11] deals with T3, α2β3γ2 GABAA/BzR. The assay can be described thus: Competition binding to HEK cell membranes, α2β3γ2. Further details: expressed in transfected cells.
The target of assay [12] is T5, α6β3γ2 GABAA/BzR. The assay can be described thus: Competition binding to HEK cell membranes, α6β3γ2. Further details: expressed in transfected cells.
Assay [13] addresses T1, α1β3γ2 GABAA/BzR. The assay can be described thus: Competition binding to HEK cell membranes, α1β3γ2. Further details: expressed in transfected cells.
Assay [14] concerns Bz BS of GABA(A) receptors. As to conditions: cited from earlier work.
Where [15] appears, read: Figure 33, αxβ3γ2, read-out: Affinity Ki α1.
The mark [16] stands for this setting: Figure 33, αxβ3γ2, read-out: Affinity Ki α6.

With `NC1=N[C@H](O)[C@H]2[C@H]3O[C@]4(O)O[C@@H]([C@@H](O)[C@@]2(N1)[C@@H]4O)[C@]3(O)CO` [TTX, Tetrodotoxin, reference compound], the “cells/track after infusion in the ventral HPC of haloperidol-treated rats” value in [1] was “reversed the haloperidol-induced reduction in cells/track in SAL, but not MAM”.

Turning to `O=C(OC(C(F)(F)F)C(F)(F)F)c1cc2c(cn1)[nH]c1ccc(I)cc12` [32(WY-B-08)], the Ki in [2] (read-out: Affinity Ki α1) was 78 nM; in [3] (read-out: Affinity Ki α3) it was 131 nM; in [4] (read-out: Affinity Ki α2) it was 301 nM; in assay [5], 681 nM; in assay [6] (read-out: Affinity Ki α6) it was 3000 nM; in assay [7] (read-out: Affinity Ki α4), 3000 nM.

For the compound `CC(C)(C)OC(=O)c1cc2c(cn1)[nH]c1ccc(I)cc12` [29(iodo-βCCt)], the Ki in [2] (read-out: Affinity Ki α1) was 14.4 nM; in assay [3] (read-out: Affinity Ki α3), 123 nM; in assay [4] (read-out: Affinity Ki α2), 44.9 nM; in assay [5], 65.3 nM; in assay [6] (read-out: Affinity Ki α6), greater than 4000 nM; in assay [7] (read-out: Affinity Ki α4), greater than 4000 nM.

As to `CCOC(=O)c1ncn2c1CN=C(c1ccccc1)c1cc(-c3ccccc3)ccc1-2` [DM-I-81 (9)], the Ki in assay [8] (Figure 17, read-out: Binding data Ki α5) is 176 nM; in assay [2] (Figure 4, read-out: Ki α1), greater than 2000 nM; in [9] (Figure 17, read-out: Binding data Ki α4), greater than 2000 nM; in assay [3] (Figure 4, read-out: Ki α3), greater than 2000 nM; in assay [4] (Figure 4, read-out: Ki α2), greater than 2000 nM; in assay [10] (Figure 17, read-out: Binding data Ki α3), greater than 2000 nM. The inhibition constant Ki was greater than 2000 nM in assay [11] (Figure 17, read-out: Binding data Ki α2); greater than 2000 nM in assay [12] (Figure 17, read-out: Binding data Ki α6); greater than 2000 nM in assay [6] (Figure 4, read-out: Ki α6); greater than 2000 nM in assay [7] (Figure 4, read-out: Ki α4); greater than 2000 nM in assay [13] (Figure 17, read-out: Binding data Ki α1).

With `CN1CCc2cccc3c2[C@H]1Cc1ccc(O)c(O)c1-3` [apomorphine, reference compound], in [1], the “number of active dopamine neurons, MAM rats withdrawn from repeated HAL” value was “no effect” and the “number of spontaneously active dopamine neurons, SAL rats withdrawn from repeated HAL” value was “increased”.

In the case of `O=C(OCC(F)(F)F)c1cc2c(cn1)[nH]c1ccc(-c3ccccc3)cc12` [38(WYB29-2)], the Ki is 125 nM in assay [3] (read-out: Affinity Ki α3); 137 nM in [4] (read-out: Affinity Ki α2); 299 nM in assay [5]; 2000 nM in [6] (read-out: Affinity Ki α6); 2000 nM in [7] (read-out: Affinity Ki α4).

Take `CC(C)(C)OC(=O)c1cc2c(cn1)[nH]c1ccc(C#C[Si](C)(C)C)cc12` [WY-B-14 (WYS7)]: the Ki in [2] (setting [15]) is 6.8 nM; in [9], 2000 nM; in assay [3] (Figure 33, αxβ3γ2, read-out: Affinity Ki α3) it was 36 nM; in [4] (Figure 33, αxβ3γ2, read-out: Affinity Ki α2), 30 nM; in [10] (Ki α3), 36 nM and 245 nM; in assay [11] (Ki α2) it was 30 nM and 165 nM. Moreover, the Ki in [12] (Ki α6) was 1000 nM and 5000 nM; in assay [5] (Figure 33, αxβ3γ2), 108 nM; in assay [6] (setting [16]), 1000 nM; in [7] (Figure 33, αxβ3γ2, read-out: Affinity Ki α4) it was 2000 nM; in assay [13] (Ki α1), 6.84 nM and 8.5 nM.

In the case of `O=C(CCCN1CCC(O)(c2ccc(Cl)cc2)CC1)c1ccc(F)cc1` [haloperidol, reference compound], the “number of spontaneously active dopamine neurons after repeated treatment, SAL and MAM rats” value in assay [1] is reported as “reduction”.

For `C#Cc1ccc2[nH]c3cnc(C(=O)OC(C)(C)C)cc3c2c1` [WY-A-99-2 (WYS8)], the Ki is 208 nM and 51 nM in assay [8] (Ki α5); 0.972 nM in assay [2] (setting [15]); 2000 nM in [9]; 1.63 nM in assay [10] (Ki α3); 1980 nM in [12] (Ki α6); 1470 nM in [5] (Figure 33, αxβ3γ2). In [6] (setting [16]), the Ki was 1980 nM. For the same compound, in [14], the “pharmacological properties compared with classical benzodiazepine receptor antagonists” value is reported as “near GABA neutral antagonists”.

As usually defined, the Ki is a measure of affinity in units of concentration, obtained from inhibition or displacement.
